Experimental data: ChEMBL document CHEMBL1136440, “Design and synthesis of novel RXR-selective modulators with improved pharmacological profile” (Bioorg Med Chem Lett, 2003)

How the values were obtained:
[1] = biological target: T1, Retinoic acid receptor beta (Homo sapiens, UniProt P10826); assay: Binding affinity against RAR beta receptor using [3H]ATRA as radioligand in CV-1 cells; type: cell-based, Cercopithecidae
T1 sequence (P10826 whole entry): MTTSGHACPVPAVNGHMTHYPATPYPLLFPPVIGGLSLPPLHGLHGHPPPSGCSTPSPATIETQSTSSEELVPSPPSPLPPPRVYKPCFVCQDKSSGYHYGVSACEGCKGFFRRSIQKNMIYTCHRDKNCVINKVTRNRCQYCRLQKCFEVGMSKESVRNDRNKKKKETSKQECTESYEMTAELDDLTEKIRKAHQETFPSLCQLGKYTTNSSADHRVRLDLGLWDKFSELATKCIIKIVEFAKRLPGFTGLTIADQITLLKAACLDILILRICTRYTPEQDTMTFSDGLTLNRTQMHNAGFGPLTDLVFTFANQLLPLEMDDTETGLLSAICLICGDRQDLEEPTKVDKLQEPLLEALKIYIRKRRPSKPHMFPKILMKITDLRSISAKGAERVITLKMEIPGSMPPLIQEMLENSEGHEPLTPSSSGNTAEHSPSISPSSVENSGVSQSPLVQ

[2] = biological target: T2, Peroxisome proliferator-activated receptor gamma (Homo sapiens, UniProt P37231)
T2 sequence (P37231 whole entry): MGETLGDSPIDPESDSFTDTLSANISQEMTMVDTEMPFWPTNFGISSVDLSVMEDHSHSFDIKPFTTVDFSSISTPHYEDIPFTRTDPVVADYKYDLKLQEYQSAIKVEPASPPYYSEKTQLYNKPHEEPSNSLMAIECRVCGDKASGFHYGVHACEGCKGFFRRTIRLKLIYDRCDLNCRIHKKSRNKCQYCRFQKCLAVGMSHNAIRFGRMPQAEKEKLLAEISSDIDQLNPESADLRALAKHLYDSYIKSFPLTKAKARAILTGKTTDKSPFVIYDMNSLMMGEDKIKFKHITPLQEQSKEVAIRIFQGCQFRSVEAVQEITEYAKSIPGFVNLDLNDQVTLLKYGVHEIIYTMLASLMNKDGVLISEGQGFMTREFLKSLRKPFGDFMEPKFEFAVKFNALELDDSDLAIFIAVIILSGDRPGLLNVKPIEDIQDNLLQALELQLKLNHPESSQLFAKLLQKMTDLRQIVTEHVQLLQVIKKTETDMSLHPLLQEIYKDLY
Description: In vitro agonistic activity against PPAR gamma along with 100 nM BRL-49653

[3] = biological target: T3, Retinoic acid receptor RXR-alpha (Homo sapiens, UniProt P19793); assay: biochemical
T3 sequence (P19793 whole entry): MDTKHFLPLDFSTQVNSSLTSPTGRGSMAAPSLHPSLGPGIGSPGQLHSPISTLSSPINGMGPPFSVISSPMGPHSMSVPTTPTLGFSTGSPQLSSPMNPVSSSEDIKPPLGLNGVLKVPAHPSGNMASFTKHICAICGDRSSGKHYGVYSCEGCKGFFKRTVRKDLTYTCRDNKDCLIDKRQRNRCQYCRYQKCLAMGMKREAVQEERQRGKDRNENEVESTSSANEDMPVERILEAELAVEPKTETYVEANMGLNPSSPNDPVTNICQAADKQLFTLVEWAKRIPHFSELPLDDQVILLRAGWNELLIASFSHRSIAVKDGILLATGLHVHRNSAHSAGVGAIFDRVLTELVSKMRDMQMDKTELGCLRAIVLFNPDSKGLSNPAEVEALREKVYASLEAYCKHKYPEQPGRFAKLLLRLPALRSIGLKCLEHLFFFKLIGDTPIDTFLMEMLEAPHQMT
Description: Binding affinity against RXR alpha receptor using [3H]9-cis-RA as radioligand in CV-1 cells

[4] = biological target: T3, Retinoic acid receptor RXR-alpha; assay: In vitro antagonist activity against RXR alpha in CV-1 cells; type: functional, cell-based, Cercopithecidae
[5] = biological target: T3, Retinoic acid receptor RXR-alpha; assay: In vitro agonistic activity against RXR alpha in CV-1 cells; type: functional, cell-based, Cercopithecidae

| SMILES | Ki [1] [nM] | EC50 [2] [nM] | Ki [3] [nM] | IC50 [4] [nM] | EC50 [5] [nM] |
| --- | --- | --- | --- | --- | --- |
| CCOc1c(\C(C)=C/C=C/C(C)=C/C(=O)O)cc(C(F)(F)C(F)(F)F)cc1C(C)C | > 10000 | 0.7 | 6.3 | 5.3 | 92 |
| C/C(=C/C=C/C(C)=C/C(=O)O)c1cc(-c2ccccc2F)cc(C(C)C)c1OCC(F)F | 3930 | 0.4 | 2.3 | 3.1 | – |
